The results in this text go back to PMC9127867, “Analysis of the β-Glucosidase Family Reveals Genes Involved in the Lignification of Stone Cells in Chinese White Pear (Pyrus bretschneideri Rehd.)” (Frontiers in Plant Science, 2022).

The target of this experiment is T1, GST-PbBGLU1 (Pyrus x bretschneideri, UniProt Z9UO32JHD5).
T1 construct: full-length CDS in pGEX4T-1, N-terminal GST tag kept, E. coli BL21(DE3)
T1 sequence (Z9UO32JHD5 522-1019 limits assumed): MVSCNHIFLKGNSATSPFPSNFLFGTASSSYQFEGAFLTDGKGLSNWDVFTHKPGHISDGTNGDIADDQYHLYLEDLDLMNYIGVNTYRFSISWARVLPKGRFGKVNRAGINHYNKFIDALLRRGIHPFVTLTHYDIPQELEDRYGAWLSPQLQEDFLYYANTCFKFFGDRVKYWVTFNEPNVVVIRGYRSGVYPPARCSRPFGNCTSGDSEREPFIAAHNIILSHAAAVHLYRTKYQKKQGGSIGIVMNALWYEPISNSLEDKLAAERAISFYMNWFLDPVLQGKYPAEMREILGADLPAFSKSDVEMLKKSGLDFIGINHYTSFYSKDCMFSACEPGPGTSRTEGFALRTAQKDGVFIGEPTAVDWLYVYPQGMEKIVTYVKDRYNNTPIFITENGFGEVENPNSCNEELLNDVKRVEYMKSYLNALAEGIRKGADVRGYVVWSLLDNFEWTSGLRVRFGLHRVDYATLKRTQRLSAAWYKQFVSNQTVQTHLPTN
The experiment is described as follows: HPLC of product, double reciprocal plot. In kind it is biochemical. Particulars: 35 °C, PBS pH 7.2–7.4, 50 mM MgSO4, 200 mM KCl, 0.1% β-mercaptoethanol. The source says: HPLC of product, double reciprocal plot on GST-PbBGLU1

Regarding `COc1cc(/C=C/CO)ccc1O[C@@H]1O[C@H](CO)[C@@H](O)[C@H](O)[C@H]1O` [coniferin], the Km (in general, the concentration of substrate that gives half-maximal velocity) worked out at 103 ± 3.89 µM.
Regarding `COc1cc(/C=C/CO)cc(OC)c1O[C@@H]1O[C@H](CO)[C@@H](O)[C@H](O)[C@H]1O` [syringin], the Km worked out at 101 ± 6.51 µM.
